Measurements: patent publication US20250082651A1, “GANAXOLONE FOR USE IN TREATING GENETIC EPILEPTIC DISORDERS” (Marinus Pharmaceuticals, Inc., priority 2017, published 2025)

Key:
[1] = test system: cytochrome P450 (CYP) isoenzymes 1A1/2 and 2B1/2; test: CYP induction and auto-induction in animals; format: in vivo, rat
[2] = In vitro haemolysis and human plasma compatibility
rats or mice = test: Reproductive/developmental toxicity and mutagenicity; format: in vivo
[3] = Plasma concentrations in paediatric patients after oral dosing; format: in vivo, human; conditions: for Plasma concentrations: oral with food, 1 to 13 year old epilepsy patients
[4] = test system: children with rare genetic epilepsies; test: Phase 2 open-label trial, safety, tolerability and disposition; format: in vivo, human
Excerpt: Example 3 concerns a Phase 2 Multicenter, Open-Label Proof-of-Concept Trial of ganaxolone (GNX) in cohorts of children having genetic epilepsies (PCDH19, CDKL5 LGS, and CSWS) (ClinicalTrials.gov Identifier: NCT02358538). There were 11 female children with PCDH19 epilepsy between 5-16 years old with a confirmed genetic mutation. There were 6 female and 1 male children with confirmed genetic mutations in the CDKL5 cohort. There were 10 children in the Lennox Gastaut Syndrome cohort. Two children with CSWS were enrolled into the study. The study was conducted with 12 weeks baseline, and up to 26 weeks of treatment followed by a 52 week open label treatment. The primary efficacy was the percentage change in seizure frequency per 28 days relative to baseline calculated using daily seizure diary. [Time Frame: 26 weeks]. Secondary Outcome Measures were: Clinician Global Impression of Change score as assessed by questionnaire. [Time Frame: 26 Weeks]; Patient Global Impression of Change score as assessed by questionnaire. [Time Frame: 26 Weeks]; Evaluation of safety and tolerability of open-label ganaxolone as adjunctive therapy for uncontrolled seizures in children with rare genetic epilepsies, based on adverse event log and other clinical safety assessments. [Time Frame: 26 weeks]; Responder rates [Time Frame: 26 weeks]; and Seizure free days [Time Frame: 26 weeks].
Following screening and baseline evaluations, consenting patients enrolled into a 26-week study during which investigators were allowed to flexibly dose ganaxolone up to a dose of 1,800 mg/day for patients whose body weight was >30 kg, or up to 63 mg/kg/day for patients whose body-weight was <30 kg. The primary efficacy measure is % change from baseline in the 28-day seizure frequency count. Safety and tolerability were within the secondary objectives of the study.
A total of 30 subjects were enrolled in the study: one-half (15 subjects) completed the 26-week open-label treatment period and one-half (15 subjects) discontinued the study. In total, the main reasons for study discontinuation in the safety population were lack of efficacy (8 subjects [26.7%]), and AE or SAE (4 subjects [13.3%)]). All 30 (100.0%) subjects were in the safety and MITT population.
Ganaxolone was generally safe and well-tolerated in subjects with epilepsy disorders. […] In the CDD cohort, 6 subjects (85.7%) experienced a total of 45 TEAEs; in the CSWS cohort, 1 subject (50.0%) had 7 TEAEs; in the LGS cohort, 7 subjects (70.0%) had 24 TEAEs; and in the PCDH19 cohort, 11 subjects (100.0%) had 95 TEAEs.
No deaths were reported in this study.

[5] = Mass balance, single PO dose of 300 mg 14C-GNX in healthy male volunteers; format: in vivo; conditions: human, plasma
Excerpt: The total plasma radioactivity concentrations achieved were much higher than GNX plasma levels in clinical studies with non-labelled GNX. […] Approximately 80% of the total radioactivity was excreted in faeces and urine by Day 14. […] PK parameters (mean±SD) of ^14C-GNX-derived total radioactivity in Healthy Male Volunteers (Study No. CA042 9402.01 [n=5]) are summarized in Table 22.

[6] = oral suspension formulation, 3 to 18 mg/kg TID, patients aged 4 to 41 months

In the case of `CC(=O)[C@H]1CC[C@H]2[C@@H]3CC[C@H]4C[C@](C)(O)CC[C@]4(C)[C@H]3CC[C@]12C` [Ganaxolone, 3α-hydroxy-3β-methyl-5α-pregnan-20-one], the Auto-induction ([1]; dogs) is reported as “no auto-induction”, the “Induction of CYP isoenzymes 1A1/2 and 2B1/2” value ([1]; female rats) is reported as “induces” and the “Induction of CYP isoenzymes 1A1/2 and 2B1/2” value ([1]; male rats) is reported as “not males”. The Auto-induction ([1]; mouse and rat) was “Auto-induction has also been observed”, the “Compatibility with human plasma” value [2] was “compatible with human plasma” and the Haemolysis [2] was “did not cause haemolysis”. For the same compound, the Mutagenicity (rats or mice; in vivo) was “No potential for mutagenicity”, the “Effects on fertility and early embryonic development” value (rats or mice; rats) was “no effects” and the Teratogenicity (rats or mice; rats or mice) was “not teratogenic”. For the same compound, the Plasma concentrations ([3]; 1 mg/kg TID) was “up to 5.78 ng/mL”, the Trough concentrations ([3]; 12 mg/kg TID, humans about 0.6 to about 7 years old) was “at least 38.5±37.4 ng/mL” and the Plasma concentrations ([3]; 12 mg/kg TID) was 10.3 to 16.1 ng/mL. For the same compound, the concentration at 4 weeks ([3]; human, plasma, oral, β-cyclodextrin formulation with food, 6 mg/kg BID to 12 mg/kg TID, 5-15 year old, read-out: Plasma concentrations at week 4) was at most 22.1 ng/mL, the concentration at 8 weeks ([3]; human, plasma, oral, β-cyclodextrin formulation with food, 6 mg/kg BID to 12 mg/kg TID, 5-15 year old, read-out: Plasma concentrations at week 8) was 5.7 to 43.7 ng/mL and the Cmax [3, 6] was “about 123 ng/mL”. For the same compound, the Trough concentration [3, 6] was “about 23 ng/mL”, the “Total number of TEAEs” value ([4]; CDD cohort) was 45 TEAEs and the “Subjects experiencing TEAEs” value ([4]; CDD cohort, safety population) was 85.7%. The “Discontinued during the 26-week open-label period, reason AE or SAE” value ([4]; CDKL5 N = 7) was 0 n (%), the “Discontinued during the 26-week open-label period, reason lack of efficacy” value ([4]; CDKL5 N = 7) was 1 n (%) and the “Discontinued during the 26-week open-label period, reason AE or SAE” value ([4]; CSWS N = 2) was 1 n (%). For the same compound, the “Discontinued during the 26-week open-label period, reason lack of efficacy” value ([4]; CSWS N = 2) was 1 n (%), the “Subjects experiencing TEAEs” value ([4]; CSWS cohort) was 50.0% and the “Total number of TEAEs” value ([4]; CSWS cohort) was 7 TEAEs. The “Discontinued during the 26-week open-label period, reason AE or SAE” value ([4]; LGS N = 10) was 1 (10.0) n (%), the “Discontinued during the 26-week open-label period, reason lack of efficacy” value ([4]; LGS N = 10) was 3 (30.0) n (%) and the “Subjects experiencing TEAEs” value ([4]; LGS cohort) was 70.0%. The “Total number of TEAEs” value ([4]; LGS cohort) was 24 TEAEs, the “Adverse event: Abdominal pain” value ([4]; PCDH19 N = 11) was 2 (18.2) N (%) and the “Adverse event: Fatigue” value ([4]; PCDH19 N = 11) was 3 (27.3) N (%). The “Adverse event: Headache” value ([4]; PCDH19 N = 11) was 3 (27.3) N (%), the “Adverse event: Pyrexia” value ([4]; PCDH19 N = 11) was 2 (18.2) N (%) and the “Adverse event: Seizure” value ([4]; PCDH19 N = 11) was 3 (27.3) N (%). The “Adverse event: Somnolence” value ([4]; PCDH19 N = 11) was 4 (36.4) N (%), the “Adverse event: Vomiting” value ([4]; PCDH19 N = 11) was 2 (18.2) N (%) and the “Discontinued during the 26-week open-label period, reason AE or SAE” value ([4]; PCDH19 N = 11) was 2 n (%). For the same compound, the “Discontinued during the 26-week open-label period, reason lack of efficacy” value ([4]; PCDH19 N = 11) was 3 n (%), the “Subjects experiencing TEAEs” value ([4]; PCDH19 cohort) was 100.0% and the “Total number of TEAEs” value ([4]; PCDH19 cohort) was 95 TEAEs. The “Discontinued during the 26-week open-label period, reason AE or SAE” value ([4]; Total N = 30) was 4 n (%), the “Discontinued during the 26-week open-label period, reason lack of efficacy” value ([4]; Total N = 30) was 8 n (%) and the Deaths ([4]; all cohorts) was “No deaths”. For the same compound, the “Subjects experiencing SAEs” value ([4]; all cohorts, N=30) was 20.0%, the “Subjects overall experiencing TEAEs” value ([4]; all cohorts, N=30) was 83.3% and the “Subjects with a TEAE that led to discontinuation of study drug” value ([4]; all cohorts, N=30) was 13.3%. The “Subjects with mild TEAEs” value ([4]; all cohorts, N=30) was 23.3%, the “Subjects with moderate TEAEs” value ([4]; all cohorts, N=30) was 46.7% and the “Subjects with severe TEAEs” value ([4]; all cohorts, N=30) was 13.3%. For the same compound, the “Subjects with treatment-related TEAEs” value ([4]; all cohorts, N=30) was 53.3% and the Half-life [5] was about 25 h.
